Experimental data: patent publication US9850219B1, “Phenothiazine derivatives and methods of use thereof” (Acenda Pharma, Inc., priority 2016, dated 2017)

Legend:
H441GL = experiment: Cytotoxicity, sulforhodamine B (SRB) assay, H441GL; format: cell-based, Human; settings: 48 h, NA indicates no activity
Description: (§1) Human non-small cell lung cancer (NSCLC) cell lines (e.g., A549, H441GL and H1299), colon cancer cell lines (e.g., HCT116 and DLD1), breast cancer cell lines (e.g., MCF7 and MDA-MB-231), and pancreatic cancer cell lines (e.g., PANC-1 and SUIT-2) were used in cytotoxicity studies. […] A549 and H441GL are EGFR-wild type adenocarcinoma cell lines. H1299 is an EGFR-wild type large cell carcinoma cell line. HCT116 and DLD1 are metastatic colon cell lines. MCF7 is a hormone-responsive breast cancer cell line. MDA-MB-231 is a triple-negative breast cancer cell line. PANC-1 is a metastatic adenocarcinoma cell line. SUIT-2 is a pancreatic ductal adenocarcinoma cell line.
(§2) All cell lines were grown and maintained in RPMI medium supplemented with 10% fetal bovine serum (FBS, Invitrogen), 2 mM L-glutamine, 100 U/mL penicillin, and 100 μg/mL streptomycin. For cell the culture experiment, stock solution (10 mM) of each test compound was dissolved in dimethyl sulfoxide (DMSO; Sigma).
(§3) Cells were plated in 96-well plates at a density of 2000 cells per well in triplicate. The cells in each well were treated on the third day (to ensure proper plating efficiency and vitality) with different concentrations (0-50 μM) of each test compound for 48 h.
(§4) Cell viability was assessed using the sulforhodamine B (SRB) assay. The medium was discarded, and the adherent cells were fixed by 100 μL of cold 10% trichloroacetic acid (w/v) in each well for 1 h at 4° C. After fixation, cells were stained with 100 μL/well of 0.4% (w/v, in 1% acetic acid) SRB solution for 30 min at room temperature, and then washed 5 times with 1% acetic acid. After air-drying, 100 μL of 10 mM Tris base was added to each well and the absorbance was read at 530 nm. Cytotoxicity is expressed as the percent of cells in drug treated wells relative to number of cells in the solvent only control (set to 100%). Each experiment was performed independently in triplicate and cytotoxicity IC50 value of each test compound was calculated from cytotoxicity data obtained at various concentrations.

A549 = experiment: Cytotoxicity, sulforhodamine B (SRB) assay, A549; format: cell-based, Human; settings: A549, 48 h, NA indicates no activity
Description: as §1, §2, §3, §4

HCT116 = experiment: Cytotoxicity, sulforhodamine B (SRB) assay, HCT116; format: cell-based, human; settings: HCT116, Colon, 48 h
Description: (§5) Human non-small cell lung cancer (NSCLC) cell lines (e.g., A549, H441GL and H1299), colon cancer cell lines (e.g., HCT116 and DLD1), breast cancer cell lines (e.g., MCF7 and MDA-MB-231), and pancreatic cancer cell lines (e.g., PANC-1 and SUIT-2) were used in cytotoxicity studies. These NSCLC cell lines have intrinsic resistance to epidermal growth factor receptor (EGFR) inhibitors, e.g., gefitinib. A549 and H441GL are EGFR-wild type adenocarcinoma cell lines. H1299 is an EGFR-wild type large cell carcinoma cell line. HCT116 and DLD1 are metastatic colon cell lines. MCF7 is a hormone-responsive breast cancer cell line. MDA-MB-231 is a triple-negative breast cancer cell line. PANC-1 is a metastatic adenocarcinoma cell line. SUIT-2 is a pancreatic ductal adenocarcinoma cell line.
as §2, §3, §4

DLD1 = experiment: Cytotoxicity, sulforhodamine B (SRB) assay, DLD1; format: cell-based, human; settings: DLD1, Colon, 48 h
Description: as §5, §2, §3, §4

MCF7 = experiment: Cytotoxicity, sulforhodamine B (SRB) assay, MCF7; format: cell-based, human; settings: MCF7, Breast, 48 h
Description: as §5, §2, §3, §4

MDA-MB-231 = experiment: Cytotoxicity, sulforhodamine B (SRB) assay, MDA-MB-231; format: cell-based, human; settings: MDA-MB-231, Breast, 48 h
Description: as §5, §2, §3, §4

PANC-1 = experiment: Cytotoxicity, sulforhodamine B (SRB) assay, PANC-1; format: cell-based, human; settings: PANC-1, Pancreas, 48 h, NA = no activity
Description: as §5, §2, §3, §4

SUIT-2 = experiment: Cytotoxicity, sulforhodamine B (SRB) assay, SUIT-2; format: cell-based, human; settings: SUIT-2, Pancreas, 48 h
Description: as §5, §2, §3, §4

lung cancer cells = experiment: Cytotoxicity SRB assay, summary of Table 2; format: cell-based, Human; settings: summary in words of Table 2
Description: as §5, §3, §4
NA indicates no activity.

H441GL cells [1] = experiment: Study 2: tumor size in mouse lung cancer model; format: in vivo, NOD/SCID mice; settings: for Tumor Size [Fold Change from Week 3 (Mean ± SD, n = 4)] Week 3 / Tumor Size [Fold Change from Week 3 (Mean ± SD, n = 4)] Week 9 / Tumor Size [Fold Change from Week 3 (Mean ± SD, n = 4)] Week 13: Study 2, 0.0127 mmol/kg daily, i.p.; for Tumor Size [Fold Change from Week 3 (Mean ± SD, n = 4)] Week 3: Week 3 (baseline, start of treatment)
Protocol: (§6) H441GL cells (1×10^6 cells in 100 μL phosphate-buffered saline/injection) were subcutaneously injected into the right flank of NOD/SCID mice (female, 4-6 weeks old). Mice were allowed 2 weeks for tumor growth. On the first day of Week 3 post injection, tumor-bearing mice were randomly divided into control group (DMSO vehicle, intraperitoneal (i.p.) injection) and test compound treatment groups (5 mg/kg/day, 5 days/week, i.p. injection). Over the period of 10 weeks, tumorigenesis in both groups was measured using a caliper on a weekly basis. The change in tumor size was expressed as in fold change from Week 3. In this study body weight of each mouse was also recorded at the end of each study week.
In this study, the daily dose was 0.0127 mmol/kg instead of 5 mg/kg.

H441GL cells [2] = experiment: Study 1: tumor size in mouse lung cancer model; format: in vivo, NOD/SCID mice; settings: for Tumor Size [Fold Change from Week 3 (Mean ± SD, n = 4)] Week 3 / Tumor Size [Fold Change from Week 3 (Mean ± SD, n = 4)] Week 9 / Tumor Size [Fold Change from Week 3 (Mean ± SD, n = 4)] Week 13: Study 1, 5 mg/kg/day, 5 days/week, i.p.; for Tumor Size [Fold Change from Week 3 (Mean ± SD, n = 4)] Week 3: Week 3 (baseline, start of treatment)
Protocol: as §6

For `COCCOCCOCCN1CCN(CCCN2c3ccccc3Sc3ccc(C(F)(F)F)cc32)CC1` [Compound 4-1b], the IC50 (H441GL) was 10.5 µM, the IC50 (A549) was 26.3 µM and the IC50 (HCT116) was 6.5 µM. It also gave an IC50 (DLD1) of 8 µM, an IC50 (MCF7) of 13.1 µM and an IC50 (MDA-MB-231) of 14.7 µM. The IC50 (PANC-1) was 20 µM, the IC50 (SUIT-2) was 13.3 µM and the “inhibition of cell proliferation of lung cancer cells” value (from here on “inhibition”) (lung cancer cells) was “inhibit cell proliferation”.
For `COCCOCCOCCOCCOCCOCCN1CCN(CCCN2c3ccccc3Sc3ccc(C(F)(F)F)cc32)CC1` [Compound 4-2b], the IC50 (H441GL) was 6.8 µM, the IC50 (A549) was 21.3 µM and the IC50 (HCT116) was 6.5 µM. For the same compound, the IC50 (DLD1) was 13.9 µM, the IC50 (MCF7) was 13.2 µM and the IC50 (MDA-MB-231) was 15.8 µM. The IC50 (PANC-1) was 10.5 µM, the IC50 (SUIT-2) was 15.6 µM and the “effect on tumor growth as compared to the vehicle control” value (H441GL cells [1]; Study 2, 0.0127 mmol/kg daily i.p., by Week 13, in words) was “largest effect of suppressing tumor growth”. For the same compound, the “Tumor Size [Fold Change from Week 3 (Mean ± SD, n = 4)] Week 3” value (H441GL cells [1]) was 1 ± 0 Fold Change, the “Tumor Size [Fold Change from Week 3 (Mean ± SD, n = 4)] Week 9” value (H441GL cells [1]) was 9.4 ± 2.6 Fold Change and the “Tumor Size [Fold Change from Week 3 (Mean ± SD, n = 4)] Week 13” value (H441GL cells [1]) was 23.3 ± 6.2 Fold Change. For the same compound, the “inhibition” value (lung cancer cells) was “inhibit cell proliferation”.
`COCCOCCOCCOCCOCCOCCOCCOCCOCCOCCOCCOCCN1CCN(CCCN2c3ccccc3Sc3ccc(C(F)(F)F)cc32)CC1` [Compound 4-3b] gave an IC50 (H441GL) of 10.5 µM, an IC50 (A549) of 11.5 µM and an IC50 (HCT116) of 8.4 µM. For the same compound, the IC50 (DLD1) was 18 µM, the IC50 (MCF7) was 10.2 µM and the IC50 (MDA-MB-231) was 13.8 µM. The IC50 (PANC-1) was 15.2 µM, the IC50 (SUIT-2) was 22 µM and the “Tumor Size [Fold Change from Week 3 (Mean ± SD, n = 4)] Week 3” value (H441GL cells [1]) was 1 ± 0 Fold Change. For the same compound, the “Tumor Size [Fold Change from Week 3 (Mean ± SD, n = 4)] Week 9” value (H441GL cells [1]) was 11.7 ± 2.1 Fold Change, the “Tumor Size [Fold Change from Week 3 (Mean ± SD, n = 4)] Week 13” value (H441GL cells [1]) was 30.2 ± 6.2 Fold Change and the “inhibition” value (lung cancer cells) was “inhibit cell proliferation”.
`COCCOCCOCCOC(=O)N1CCN(CCCN2c3ccccc3Sc3ccc(C(F)(F)F)cc32)CC1` [Compound 5-1b, NDT-CO—O—[CH2CH2O]3—CH3] showed an IC50 (H441GL) of 3.2 µM, an IC50 (A549) of 3.8 µM and an IC50 (HCT116) of 10 µM. It also gave an IC50 (DLD1) of 35.9 µM, an IC50 (MCF7) of 13.6 µM and an IC50 (MDA-MB-231) of 21.6 µM. The IC50 (PANC-1) was 18.2 µM, the IC50 (SUIT-2) was 21.4 µM and the “Tumor Size [Fold Change from Week 3 (Mean ± SD, n = 4)] Week 3” value (H441GL cells [2]) was 1 ± 0 Fold Change. For the same compound, the “Tumor Size [Fold Change from Week 3 (Mean ± SD, n = 4)] Week 9” value (H441GL cells [2]) was 28.2 ± 7.4 Fold Change, the “Tumor Size [Fold Change from Week 3 (Mean ± SD, n = 4)] Week 13” value (H441GL cells [2]) was 69.8 ± 18.4 Fold Change and the “inhibition” value (lung cancer cells) was “inhibit cell proliferation”.
For `COCCOCCOCCOCCOCCOCCOC(=O)N1CCN(CCCN2c3ccccc3Sc3ccc(C(F)(F)F)cc32)CC1` [Compound 5-2b, NDT-CO—O—[CH2CH2O]6—CH3], the IC50 (H441GL) was 2.7 µM, the IC50 (A549) was 3.2 µM and the IC50 (HCT116) was 7.3 µM. For the same compound, the IC50 (DLD1) was 15.2 µM, the IC50 (MCF7) was 12 µM and the IC50 (MDA-MB-231) was 15.8 µM. The IC50 (PANC-1) was 12.5 µM, the IC50 (SUIT-2) was 10.8 µM and the “effect on tumor growth as compared to the vehicle control” value (H441GL cells [2]; Study 1, 5 mg/kg/day i.p., in words) was “largest effect of suppressing tumor growth”. For the same compound, the “Tumor Size [Fold Change from Week 3 (Mean ± SD, n = 4)] Week 3” value (H441GL cells [2]) was 1 ± 0 Fold Change, the “Tumor Size [Fold Change from Week 3 (Mean ± SD, n = 4)] Week 9” value (H441GL cells [2]) was 23.4 ± 7.5 Fold Change and the “Tumor Size [Fold Change from Week 3 (Mean ± SD, n = 4)] Week 13” value (H441GL cells [2]) was 51.6 ± 17.6 Fold Change. The “inhibition” value (lung cancer cells) was “inhibit cell proliferation”.
